Reference: PMC7385619, “A triple action CDK4/6-PI3K-BET inhibitor with augmented cancer cell cytotoxicity” (Cell Discovery, 2020)
pIC50: −log10 of the molar value.

Tests used:
[1] = test system: mantle cell lymphoma (Granta-519, Mino, and Jeko-1); assay: Cell viability (cytotoxicity) assay, mantle cell lymphoma cells; assay type: cell-based; conditions: Homo sapiens; 48 hours, CCK8 or Alamar Blue; curves of Fig. 1f-j; read-out: Half maximal inhibitory concentration (IC50) in cell line cytotoxicity assays, Mantle Cell Lymphoma
CDK6 = target: T1, CDK6 (Homo sapiens, UniProt Q00534); assay: In vitro kinase assay, CDK6; assay type: biochemical; conditions: Fig. 1b; italicized values from the literature (italics not visible)
T1 construct: purchased Reaction Biology

[2] = test system: pAKT Ser473 (downstream surrogate of PI3K activity); assay: Immunoblotting for Akt phosphorylation; assay type: cell-based, human; conditions: Huh7, CHLA-255 and Jeko-1 cells, stimulated with 50 ng/mL IGF-1, increasing concentrations, 30 minutes
From the text: (§1) from James Bradner (Dana-Farber Cancer Institute, Boston, MA). […]
(§2) from Novartis (Basel, Switzerland). Palbociclib was obtained from LC Laboratories (Woburn, MA). Recombinant human IGF-1 was from Peprotech (Rocky Hill, NJ). Antibodies specific for […]
(§3) Cell Signaling Technology (Beverly, MA). GAPDH antibody (GT239) was from GeneTex, Inc.
(§4) Molecular models were created to design and dock molecules in silico using the software engines AutoDock Vina1 and rDock2 and the crystal structures of BRD4 (PDB ID: 4CFK), PI3K (PDB ID: 4JPS) and CDK6 (PDB ID: 5L2T).
(§5) Bromodomain and kinase assays
(§6) Inhibition of BET family members was measured using Alpha Screen assays from Reaction Biology (Malvern, PA) with His -tagged bromodomains and acetylated histone peptides as ligands. CDK and PI3K isoform activities were measured using in vitro kinase assays from Reaction Biology and ThermoFisher Scientific (Waltham, MA), respectively. KINOME scan and BROMOscan assays were performed at Eurofins DiscoverX (Fremont, CA) with data analyzed […]
(§7) Protein expression and purification
(§8) BRD4 BD1 (aa 43-180) and BD2 (aa 342 -460) were expressed in E. coli BL21 (DE3) RIL in either Luria Broth or […] minimal media supplemented with 15NH4Cl. […]
(§9) or 100 µM in triplicate the following day. […] For CCK8, absorbance was measured at 450 nm; for Alamar Blue, fluorescence signals were read as emission at 590 nm after excitation at 560 nm. […]

BRD2 (BD2) = target: T2, BRD2 (BD2) (Homo sapiens, UniProt P25440); assay: AlphaScreen bromodomain binding assay, BRD2 BD2; conditions: Fig. 1b; italicized values from the literature (italics not visible)
T2 construct: tagged bromodomains and acetylated histone peptides as; purchased Reaction Biology

[3] = test system: pRb Ser780 (downstream surrogate of CDK4/6 activity); assay: Immunoblotting for Rb phosphorylation; assay type: cell-based, human; conditions: Huh7, CHLA-255 and Jeko-1 cells, stimulated with 50 ng/mL IGF-1, increasing concentrations, 30 minutes
From the text: as §1, §2, §3, §4, §5, §6, §7, §8, §9

DNA-PK = DNA-PK (Homo sapiens, UniProt P78527); assay: In vitro kinase assay, DNA-PK; assay type: biochemical; conditions: Fig. 1b; italicized values from the literature (italics not visible)
BRD2 (BD1) = target: T3, BRD2 (BD1) (Homo sapiens, UniProt P25440); assay: AlphaScreen bromodomain binding assay, BRD2 BD1; conditions: Fig. 1b; italicized values from the literature (italics not visible)
T3 construct: tagged bromodomains and acetylated histone peptides as; purchased Reaction Biology

CDK9 = target: T4, CDK9 (Homo sapiens, UniProt P50750); assay: In vitro kinase assay, CDK9; assay type: biochemical; conditions: Fig. 1b; italicized values from the literature (italics not visible)
T4 construct: purchased Reaction Biology

mTOR = mTOR (Homo sapiens, UniProt P42345); assay: In vitro kinase assay, mTOR; assay type: biochemical; conditions: Fig. 1b; italicized values from the literature (italics not visible)
bromodomain panel = assay: BROMOscan assay (Eurofins DiscoverX); assay type: binding
PI3Kγ = target: T5, PI3Kγ (Homo sapiens, UniProt P48736); assay: In vitro kinase assay, PI3Kγ; assay type: biochemical; conditions: Fig. 1b; italicized values from the literature (italics not visible)
T5 construct: purchased ThermoFisher Scientific

CDK2 = target: T6, CDK2 (Homo sapiens, UniProt P24941); assay: In vitro kinase assay, CDK2; assay type: biochemical; conditions: Fig. 1b; italicized values from the literature (italics not visible)
T6 construct: purchased Reaction Biology

[4] = test system: Hepatocellular carcinoma cells (Hep3B, HepG2, and Huh7); assay: Cell viability (cytotoxicity) assay, hepatocellular carcinoma cells; assay type: cell-based; conditions: Homo sapiens; 48 hours, CCK8 or Alamar Blue; curves of Fig. 1f-j; read-out: Half maximal inhibitory concentration (IC50) in cell line cytotoxicity assays, Hepatocellular Carcinoma
[5] = test system: BRD4 binding to the MYC TSS in Huh7 and Jeko-1 cells; assay: Chromatin immunoprecipitation of BRD4 at the MYC transcriptional start site; assay type: cell-based, human
Description: assay for comparison relative to the no-drug control and to the time zero number of cells for assessment of growth inhibition (values between 0 and 100) and lethality (values less than 0), […]
Hepatocellular carcinoma cells (Hep3B, HepG2, and Huh7), neuroblastoma cells (CHLA-255, CHLA-136, and SMS-KNCR), mantle cell lymphoma (Granta-519, Mino, and Jeko-1), or normal tonsillar epithelial cells (RRP008) were seeded in complete medium in 96-well tissue culture plates at 2.5 x 10^3 to 1 x 10^4 cells per well, respectively. Cells were incubated overnight to allow for attachment of adherent cells. […]
or 100 µM in triplicate the following day. Cells were incubated for 48 hours at 37 °C then treated with either CCK8 reagent (Dojindo Molecular Technologies, Rockville, MD) or Alamar Blue (ThermoFisher Scientific) and incubated for 3-6 hours at 37 °C. For CCK8, absorbance was measured at 450 nm; for Alamar Blue, fluorescence signals were read as emission at 590 nm after excitation at 560 nm. Averaged values were normalized as a percentage of control and plotted and regressed for dose response using GraphPad Prism (GraphPad Software, Inc., La […]
Chromatin immunoprecipitation
Chromatin immunoprecipitation assays using antibodies against BRD4 and an isotype control and primers designed to the MYC transcriptional site and a non-regulated upstream locus were performed as previously described8. […]

[6] = Cell viability (cytotoxicity) assay, normal tonsillar epithelial cells; assay type: cell-based; conditions: human, normal tonsillar epithelial cells (RRP008), surrogate for toxicity of normal tissue, read-out: Half maximal inhibitory concentration (IC50) in cell line cytotoxicity assays, Tonsillar Epithelia
BRD3 (BD2) = target: T7, BRD3 (BD2) (Homo sapiens, UniProt Q15059); assay: AlphaScreen bromodomain binding assay, BRD3 BD2; conditions: Fig. 1b; italicized values from the literature (italics not visible)
T7 construct: tagged bromodomains and acetylated histone peptides as; purchased Reaction Biology
T7 sequence (Q15059 306-415 limits assumed): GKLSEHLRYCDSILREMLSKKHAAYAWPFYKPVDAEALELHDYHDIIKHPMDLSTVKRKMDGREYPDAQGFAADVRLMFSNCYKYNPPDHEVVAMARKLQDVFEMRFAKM

T2 sequence (P25440 344-453 limits assumed): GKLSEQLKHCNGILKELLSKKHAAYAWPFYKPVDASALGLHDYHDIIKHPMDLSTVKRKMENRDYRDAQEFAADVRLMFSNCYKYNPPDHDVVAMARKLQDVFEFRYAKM
T1 sequence (Q00534 whole entry): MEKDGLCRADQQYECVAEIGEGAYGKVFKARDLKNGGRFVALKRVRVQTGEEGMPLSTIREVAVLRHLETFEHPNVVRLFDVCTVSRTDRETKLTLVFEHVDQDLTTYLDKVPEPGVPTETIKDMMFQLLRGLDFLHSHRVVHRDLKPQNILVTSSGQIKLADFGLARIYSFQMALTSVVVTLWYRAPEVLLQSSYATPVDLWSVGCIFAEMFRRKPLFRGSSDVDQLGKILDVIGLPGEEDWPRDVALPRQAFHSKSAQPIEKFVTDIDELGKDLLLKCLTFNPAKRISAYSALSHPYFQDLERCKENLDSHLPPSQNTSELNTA
T1 sequence (P24385 whole entry partner): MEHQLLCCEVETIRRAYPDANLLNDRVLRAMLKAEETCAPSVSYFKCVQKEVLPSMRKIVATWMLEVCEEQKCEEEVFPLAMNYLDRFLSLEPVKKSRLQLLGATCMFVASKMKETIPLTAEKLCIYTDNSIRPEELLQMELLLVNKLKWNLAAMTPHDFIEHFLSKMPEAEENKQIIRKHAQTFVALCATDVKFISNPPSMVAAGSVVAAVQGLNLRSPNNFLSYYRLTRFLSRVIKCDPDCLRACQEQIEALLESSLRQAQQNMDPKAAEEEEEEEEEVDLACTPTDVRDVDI
T5 sequence (P48736 whole entry): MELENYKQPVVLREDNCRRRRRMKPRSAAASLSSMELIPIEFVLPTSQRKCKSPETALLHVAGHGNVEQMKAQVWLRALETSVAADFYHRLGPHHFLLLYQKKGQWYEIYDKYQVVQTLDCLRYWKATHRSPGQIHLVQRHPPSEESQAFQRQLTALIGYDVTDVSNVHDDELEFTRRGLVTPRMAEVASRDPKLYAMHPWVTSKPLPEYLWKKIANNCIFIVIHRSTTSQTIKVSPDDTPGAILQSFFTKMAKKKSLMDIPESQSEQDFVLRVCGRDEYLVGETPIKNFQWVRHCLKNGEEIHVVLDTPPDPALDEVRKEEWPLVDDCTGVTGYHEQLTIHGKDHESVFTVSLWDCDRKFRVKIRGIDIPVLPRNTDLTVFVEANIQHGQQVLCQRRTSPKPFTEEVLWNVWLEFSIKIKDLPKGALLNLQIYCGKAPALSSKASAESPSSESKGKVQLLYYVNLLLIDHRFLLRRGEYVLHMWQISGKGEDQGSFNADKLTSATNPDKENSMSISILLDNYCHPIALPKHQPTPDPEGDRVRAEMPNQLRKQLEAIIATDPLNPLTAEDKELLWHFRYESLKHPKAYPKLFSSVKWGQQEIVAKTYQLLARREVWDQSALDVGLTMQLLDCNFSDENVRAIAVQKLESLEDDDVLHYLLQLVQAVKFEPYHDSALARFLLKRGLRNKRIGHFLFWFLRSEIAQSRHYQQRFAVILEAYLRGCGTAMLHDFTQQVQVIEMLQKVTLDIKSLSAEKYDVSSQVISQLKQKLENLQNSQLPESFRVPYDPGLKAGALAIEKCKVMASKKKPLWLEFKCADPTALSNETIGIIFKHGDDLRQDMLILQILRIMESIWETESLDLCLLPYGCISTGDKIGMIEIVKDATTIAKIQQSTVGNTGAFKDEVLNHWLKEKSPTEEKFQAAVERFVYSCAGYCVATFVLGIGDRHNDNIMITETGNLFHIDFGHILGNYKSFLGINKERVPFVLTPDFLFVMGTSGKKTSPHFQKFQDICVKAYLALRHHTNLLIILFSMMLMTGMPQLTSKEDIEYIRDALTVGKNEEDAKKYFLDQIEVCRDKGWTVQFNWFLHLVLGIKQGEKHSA
T4 sequence (P50750 whole entry): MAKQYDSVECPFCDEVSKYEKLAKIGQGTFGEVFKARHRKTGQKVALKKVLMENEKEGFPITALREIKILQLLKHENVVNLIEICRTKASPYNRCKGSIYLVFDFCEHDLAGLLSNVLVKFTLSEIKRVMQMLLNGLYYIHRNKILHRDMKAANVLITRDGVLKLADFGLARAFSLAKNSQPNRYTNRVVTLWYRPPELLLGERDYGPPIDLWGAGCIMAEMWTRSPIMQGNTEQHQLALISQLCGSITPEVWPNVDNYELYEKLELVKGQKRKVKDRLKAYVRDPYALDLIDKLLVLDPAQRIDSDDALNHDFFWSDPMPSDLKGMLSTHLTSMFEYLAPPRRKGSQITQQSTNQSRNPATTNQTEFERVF
T4 sequence (O60563 whole entry partner): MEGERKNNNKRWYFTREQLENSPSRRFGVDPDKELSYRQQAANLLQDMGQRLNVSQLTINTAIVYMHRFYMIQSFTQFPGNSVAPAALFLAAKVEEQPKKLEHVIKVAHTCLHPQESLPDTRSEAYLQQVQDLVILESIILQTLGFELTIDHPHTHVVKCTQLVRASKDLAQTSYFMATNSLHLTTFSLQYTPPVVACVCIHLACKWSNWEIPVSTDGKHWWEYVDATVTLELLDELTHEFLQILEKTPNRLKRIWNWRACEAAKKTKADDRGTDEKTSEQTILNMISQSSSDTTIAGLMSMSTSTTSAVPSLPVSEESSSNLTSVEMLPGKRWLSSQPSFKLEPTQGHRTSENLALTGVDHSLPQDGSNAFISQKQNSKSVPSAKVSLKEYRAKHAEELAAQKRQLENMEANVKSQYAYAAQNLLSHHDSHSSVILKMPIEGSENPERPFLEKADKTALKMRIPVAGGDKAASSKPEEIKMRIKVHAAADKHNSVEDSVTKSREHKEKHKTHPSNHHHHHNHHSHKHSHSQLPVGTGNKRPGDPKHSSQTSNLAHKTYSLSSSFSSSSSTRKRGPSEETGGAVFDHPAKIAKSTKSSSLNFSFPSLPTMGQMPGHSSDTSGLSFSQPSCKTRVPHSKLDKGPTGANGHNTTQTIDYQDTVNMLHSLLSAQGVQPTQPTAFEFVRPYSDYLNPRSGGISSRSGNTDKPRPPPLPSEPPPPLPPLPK
T3 sequence (P25440 74-180 limits assumed): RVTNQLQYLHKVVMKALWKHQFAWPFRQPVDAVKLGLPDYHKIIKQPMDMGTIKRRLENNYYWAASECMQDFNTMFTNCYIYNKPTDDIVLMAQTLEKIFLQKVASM

Compound: CN(C)C(=O)c1cc2cnc(Nc3ccc(-c4csc5c(=O)cc(N6CCOCC6)oc45)cc3)nc2n1C1CCCC1 [SRX3177]
- pIC50 [1]: 6.08
- pIC50 (CDK6): 8.48
- levels of Akt phosphorylation [2]: decrease in levels
- pIC50 (BRD2 (BD2)): 6.00
- levels of Rb phosphorylation [3]: decrease in levels of Rb phosphorylation
- pIC50 (DNA-PK): 7.68
- pIC50 (BRD2 (BD1)): 5.85
- pIC50 (CDK9): > 8.70
- pIC50 (mTOR): 5.16
- specificity in BROMOscan (bromodomain panel): lack of off-targeting
- pIC50 (PI3Kγ): 5.50
- pIC50 (CDK2): 6.30
- pIC50 [4]: 6.19
- occupancy of BRD4 at the transcriptional start site (TSS) of MYC by ChIP [5]: abrogated binding of BRD4 to the MYC TSS
- IC50 at 48 h [6]: 34000 nM
- pIC50 (BRD3 (BD2)): 6.65
